Reference: PMC9219824, “Antiplasmodial Cyclodecapeptides from Tyrothricin Share a Target with Chloroquine” (Antibiotics, 2022)
Square brackets hold non-standard residues; d marks the D form. Peptide text beside a SMILES is read from it. Orn = NCCC[C@H](N)C(=O)O

What was measured:
CQI P. falciparum D10 = test: microbe, parasite or virus in culture; assay type: cell-based, Plasmodium falciparum; conditions: for IC50: 48 h, Malstat, ± SEM; for Selectivity Index IC50D10/IC50 (COS cells): second value of cell
Method: The antimalarial assays were carried out according to the method of Nkhoma et al.. Once the cultures reached a parasitemia of 5–15%, they were synchronized four days prior to the day of the assay as described above which allowed the cultures to recover from the stress caused by the D-sorbitol. On the day of the assay, the parasitemia was determined following observation by light microscopy after Giemsa staining of a thin blood smear from the culture. The cultures at young trophozoite stage were diluted to 2% parasitemia and 2% hematocrit by addition of fresh RPMI medium and uninfected erythrocytes. This culture suspension was distributed in 96-well culture plates at 90 µL/well. The peptides and CQ diluted in culture medium lacking albumax II were added to the cultures in triplicate at 10 µL/well to give a total volume of 100 µL/well. Peptide solvent and medium (10 µL/well) was used as sterility control and in growth control and 10 μL 1.0 mM GS was used as positive control. Assays were carried out in at least three biological repeats each consisting of three technical repeats to ascertain reproducibility.
For the activity determination against parasites, plates were incubated at 37 °C for 48 h under an atmosphere of 3% CO2, 4% O2 and 93% N2. The culture suspension was frozen away at −20 °C until determination of the residual lactate dehydrogenase activity of the parasites by the Malstat assay, as adapted from Gomez et al..
For the Malstat assay, the plates were transferred to −80 °C for 1 h following overnight storage at −20 °C to ensure that all the suspensions in each well of the 96-well plate were frozen. The plates were then thawed at room temperature. The Malstat reagent consisted of 200 μL Triton X-100, 2 g L-lactic acid (substrate), 0.66 g Tris-HCl buffer and 0.011 g of 3-acetylpyridine adenine dinucleotide (APAD) (coenzyme for parasite lactate dehydrogenase) in 100 mL analytical quality water set to a pH of 9.0 [93]. The lactate dehydrogenase reaction was initiated by addition of a second solution, NBT/PES solution composed of 1.96 mM nitro blue tetrazolium (NBT) and 0.24 mM phenazine ethosulfate (PES) which was always protected from light. A 15 µL aliquot of the thawed and properly mixed suspension from the assay plates was added to 100 µL of the Malstat reagent, followed by addition of 25 µL of the NBT/PES solution. The reaction mixtures were then incubated at room temperature in the dark for 30 min followed by spectrophotometric measurement of the absorbance of the reduced APAD at 620 nm using a Model 680 Microplate reader from BioRad.
(§1) The data obtained from spectrophotometric measurement of the plates following the lactate dehydrogenase (Malstat) assay were converted to percentage growth inhibition using the data analysis method described by Rautenbach et al.. The background was obtained from control wells in which the parasites were killed with 100 µM GS while total growth was from the wells that were not submitted to peptides. The background for the hemolysis evaluation was from wells in which the uninfected erythrocytes were lysed using 100 µM GS while growth control was from the wells with uninfected erythrocytes that received no peptides. The percentage COS-1 cell death (CellTiter Blue™ assay) was similarly calculated from absorbance values. All the dose–response assay data were evaluated using GraphPad Prism 4.03 (GraphPad Software, San Diego, CA, USA) followed by non-linear regression and sigmoidal curves were fitted (having variable slope and a constant difference of 100 between the top and bottom plateau). Following calculation of the 50% P. falciparum inhibitory concentration (IC50), 50% hemolytic concentration (HC50) and 50% lethal concentration (LC50) for COS-1 cells.

human erythrocytes = test: Hemolytic activity; assay type: cell-based; conditions: 2% hematocrit, 1 h at 37 °C, ± SEM
Method: To determine the hemolytic activity of the peptides, the duplicate 96-well plates with samples added to 90 μL 2% hematocrit per well were incubated for one hour at 37 °C and centrifuged using a swing-out rotor at 200× g for 3 min. The supernatant was diluted 1:8 in analytical quality water in separate 96-well plates and after mixing, the absorbance of the suspension was determined at 405 nm.
as §1

P. falciparum D10 [1] = test: Parasite stage distribution, Giemsa staining and light microscopy; assay type: cell-based, Plasmodium falciparum; conditions: 200 nM, synchronized trophozoite stage cultures, 0 to 48 h
Method: For light microscopy, following addition of TpcC, aliquots were collected from the cultures at different time-points for preparation of Giemsa-stained blood smears. The assay was carried out in duplicate and lactate dehydrogenase activity of the residual cultures was determined after 48 h.

P. falciparum D10 [2] = test: Super-resolution structured illumination fluorescence microscopy (SR-SIM) of parasite morphology; assay type: cell-based, Plasmodium falciparum
Method: Prior to staining for fluorescence microscopy, the cultures were centrifuged at 300× g for 4 min, then the supernatant was discarded and cells were suspended to the same percentage hematocrit in a solution made of one part analytical quality water and three parts sterile PBS (pH 7.2–7.3) in order to reduce solute concentration.
The fluorescence microscopy involved staining suspended cultures (TpcC treated and untreated) prepared as described above (except for not being synchronized within the last 48 h of culturing) with combinations of trypan blue (red fluorescence) and either SYTO® 9 green-fluorescent nucleic acid stain or LipidTOX™ neutral lipid stain (green fluorescence). To view the neutral lipids, the cells were stained with LipidTOX™ (stock solution dilution at 1:200), incubated for 30 min at room temperature before staining with trypan blue at final concentration of 0.002% v/v. For nucleic acid staining, the cells were stained with SYTO® 9 (stock solution dilution at 1:1000) and trypan blue at final concentration of 0.002% v/v and incubated at room temperature for 15 min. Super-resolution structured illumination (SR-SIM) fluorescence microscopy was carried out as follows: thin ([…]) z-stacks of high-resolution image frames were accumulated in 5 rotations using an alpha Plan-Apochromat 100×/1.46 oil DIC M27 ELYRA objective, employing an ELYRA S.1 (Carl Zeiss Microimaging) microscope equipped with a 488 nm laser (100 mW), 561 nm laser (100 mW) and Andor EM-CCD camera (iXon DU 885). Images were […] using ZEN software (black edition, 2011, version 7.04.287) based on a structured illumination algorithm. Image projections and animations were carried out on reconstructed super-resolution images in ZEN.

SMILES	IC50 (CQI P. falciparum D10)	Selectivity Index IC50D10/IC50 (COS cells) (CQI P. falciparum D10)	HC50, Erythrocytes (human erythrocytes)	increase in activity towards the CQI D10 strain (CQI P. falciparum D10; compared with 3D7)	effect on parasite stage progression (P. falciparum D10 [1])	permeabilization or lysis of parasite and erythrocyte membranes (trypan blue leakage) (P. falciparum D10 [2]; lethal concentration of 200 nM)	chromatin morphology (SYTO9 nuclear staining) (P. falciparum D10 [2]; post 6 h treatment)	neutral lipid structures (LipidTOX stain) (P. falciparum D10 [2]; trophozoite stage cultures, after 5 h in culture)
CC(C)C[C@@H]1NC(=O)[C@H](CCCN)NC(=O)[C@H](C(C)C)NC(=O)[C@H](Cc2ccccc2)NC(=O)[C@H](CCC(N)=O)NC(=O)[C@H](CC(N)=O)NC(=O)[C@@H](Cc2ccccc2)NC(=O)[C@H](Cc2ccccc2)NC(=O)[C@@H]2CCCN2C(=O)[C@@H](Cc2ccccc2)NC1=O [PhcA, phenycidine A] (cyclo(FV[Orn]L[dF]PF[dF]NQ))	52 ± 17 nM	154	7.1 ± 1.6 (8) μM	–	–	–	–	–
CC(C)C[C@@H]1NC(=O)[C@H](CCCN)NC(=O)[C@H](C(C)C)NC(=O)[C@H](Cc2c[nH]c3ccccc23)NC(=O)[C@H](CCC(N)=O)NC(=O)[C@H](CC(N)=O)NC(=O)[C@@H](Cc2c[nH]c3ccccc23)NC(=O)[C@H](Cc2c[nH]c3ccccc23)NC(=O)[C@@H]2CCCN2C(=O)[C@@H](Cc2ccccc2)NC1=O [TpcC, tryptocidine C] (cyclo(L[dF]PW[dW]NQWV[Orn]))	42 ± 17 nM	238	9.1 ± 1.5 (4) μM	about a three-fold increase in activity	delay in the occurrence of the schizont stage	none of the parasite membranes or erythrocyte membrane was permeabilized or lysed	abnormality in the packing or compactness of the chromatin	the lipid structures were distorted and diffused
CC(C)C[C@@H]1NC(=O)[C@H](CCCN)NC(=O)[C@H](C(C)C)NC(=O)[C@H](Cc2ccc(O)cc2)NC(=O)[C@H](CCC(N)=O)NC(=O)[C@H](CC(N)=O)NC(=O)[C@@H](Cc2ccccc2)NC(=O)[C@H](Cc2ccccc2)NC(=O)[C@@H]2CCCN2C(=O)[C@@H](Cc2ccccc2)NC1=O [TrcA, tyrocidine A] (cyclo(V[Orn]L[dF]PF[dF]NQY))	–	51	–	–	–	–	–	–
